Measurements as given in US20190282600A1, “COMBINATION THERAPIES TARGETING TERT DEPENDENCY FOR CANCER THERAPY” (The Wistar Institute of Anatomy and Biology, priority 2018, published 2019).

Key:
[1] = tested on: NRAS mutant melanoma cells; assay: Telomere dysfunction-induced foci (TIF) assay, IF-FISH; format: cell-based, Human; conditions: WM3000 cells transduced with TERT shRNA, NAC 1 mM for 7 days
Description: NRAS mutant melanoma cells WM3000 were transduced with TERT shRNA and treated with NAC (mM) for 7 days. […] Representative images are shown. (scale bar=10 μm). Quantification of TIF positive cells is plotted in FIG. 13b. Cells were scored as TIF positive when three or more g-H2AX foci (green) were co-localizing with telomere foci (red). Data represent average of thirteen fields imaged +/−SD.
NRAS^mut melanoma cells were treated with 6-thio-dG for 6, 12 or 18 days. As presented in FIG. 15a, relative cell number was assessed by Crystal Violet assay and calculated relative to DMSO-treated cells. Data represent average of three independent experiments +/−SD. […] NRAS^mut cells were treated with 6-thio-dG for 7 days and telomere induced foci (TIF) was determined by indirect immunofluorescence combined with fluorescence in situ hybridization (FISH) (FIG. 15c). […] Quantification of TIF assay is plotted in FIG. 15d. Cells were scored as TIF positive when four or more γ-H2AX foci (green, center row of FIG. 15c labelled as γH2AX) were co-localizing with telomere foci (red, top row of FIG. 15c labelled as Telomeres). […] P values were calculated by unpaired Student's t-test.
For TIF analysis, indirect immunofluorescence (IF) combined with fluorescence in situ hybridization (FISH) was performed as previously described with some modifications. […] TIF were quantified from at least three independent experiments.

[2] = tested on: NRAS mutant melanoma spheroids; assay: 3D collagen-embedded tumor spheroids, Live/Dead staining; format: cell-based, Human; conditions: 6-thio-dG 5 μM and Ganetespib 5 μM, day 7
Description: FIGS. 6a to 6e provide results showing that combining 6-thio-dG and Gamitrinib inhibits the growth of 3D melanoma spheroids and NRAS-mutant xenograft tumors. […] 4a to 4e. On day 7, spheroids were stained with Calcein AM (live cells; green) and EtBr (dead cells; red) and imaged using an inverted microscope (4X; scale bar=250 μm). […] P values were calculated using unpaired Student's t-test. *p<0.05, ** p<0.01, ***p<0.005, when comparing vehicle control vs. combination treatment groups. As presented in FIG. 6d, treatment was discontinued after 14 days, and mice were followed until tumor volume reached a preset volume (1500 mm^3). Kaplan Meier survival curves of mice treated for 14 days. p-values were calculated by Mantel-Cox log-rank test; *p<0.05, **p<0.01, ***p<0.005. Animal weight (grams) before treatment (Start of TX) and at the end of the study (End of TX) was assessed, recorded for every mouse enrolled in the study and plotted in FIG. 6e. Mean and SEM are depicted (n=7 mice/treatment group). Statistical significance was assessed by unpaired Student's t-test.
In FIG. 17a, NRAS^mut melanoma cells were treated with 6-thio-dG (1 μM) for 7 days total. At day 5, culture medium was replaced and cells were treated with 1 μM 6-thiodG plus 1 mM Phenformin for two more days. Percent cell death was determined by flow cytometry following staining of cells with Annexin V and Propidium iodide. […]

[3] = tested on: NRAS mutant melanoma cells; assay: Cell death by flow cytometry (PSVue or Annexin V/PI); format: cell-based, Human; conditions: cells transduced with TERT shRNA, 7 days post infection 5 μM Gamitrinib for 48 h
Description: FIGS. 2a to 2c show NRAS^mut melanoma cells (FIG. 2a), BRAF-V600E/NRAS mutant cells derived from melanoma patients resistant to BRAF/MEK inhibitors (FIG. 2b), or non-transformed melanocytes and fibroblasts (FIG. 2c) were treated with 6-thio-dG for 7 days. Cell viability was measured by Alamar Blue assay and calculated relative to DMSO-treated cells. […] Cell death was assessed by PSVUe staining. Percent of apoptotic cells is shown. […] Mean TRF length expressed as kilobase pairs is indicated at the bottom. […] FIG. 2g provides a bar graph showing that DNA damage was assessed by γH2AX staining. Data represent average from three independent experiments ±SEM. *p<0.05; **p<0.01; ***p<0.005 in unpaired Student's t-test. As presented in FIG. 2h, mice bearing established WM3000 or M93-047 NRAS^mut tumors were treated with vehicle control or 6-thio-dG (2.5 mg/kg i.p; q.d). Tumor volume was measured and average tumor volume (n=4) ±SEM was plotted vs. time.
FIGS. 3a to 3g provides graphs showing that telomere dysfunction enhances oxidative stress leading to upregulation of an antioxidant program. […] Mitochondrial superoxide production was measured by MitoSox Red fluorescence (FIGS. 3c, and 3d) and expressed as fluorescence relative to vector or DMSO controls. […] FIG. 3f provides a bar graph showing that SOD2 was silenced using shRNA. Transduced M93-047 cells were treated with DMSO or 1 μM of 6-thio-dG and cell death was assessed by Annexin V/PI straining. As presented in FIG. 3g, M93-047 cells were transduced with a SOD2 lentiviral construct or empty vector control (pLX304). Transduced cells were treated with increasing doses (1, 2.5 and 5 μM) of 6-thio-dG for 7 days and cell death was assessed. Data represent average from three independent experiments ±SEM. *p<0.05; **p<0.01; ***p<0.005 in unpaired Student's t-test.
FIGS. 4a to 4e provides bar graphs showing that induction of telomere and mitochondrial dysfunction triggers cell death in NRAS mutant melanoma. […] Cell death was assessed by Annexin V and PI staining. […] Cells were stained with Annexin V and PI and percent cell death was determined by flow cytometry. […] P values were calculated using unpaired Student's t-test; * p<0.05; *** p<0.005.
As presented in FIG. 16a, SOD2 was silenced using shRNA. Transduced WM3000 cells were treated with DMSO or 1 μM of 6-thio-dG and cell death was assessed by Annexin V/PI straining. […] Transduced cells were treated with increasing doses (1, 2.5 and 5 μM) of 6-thio-dG for 10 days and cell death was assessed. […]
In FIG. 17a, NRAS^mut melanoma cells were treated with 6-thio-dG (1 μM) for 7 days total. […] Percent cell death was determined by flow cytometry following staining of cells with Annexin V and Propidium iodide. […]

KRAS mutant HCT116 cells = assay: Cell death by Annexin V/PI flow cytometry; format: cell-based; conditions: 1 μM 6-thio-dG, 5 μM Gam
Description: (§1) FIGS. 5a to 5e provide bar graphs showing that combination treatment with 6-Thio-dG and Gamitrinib (Gam) triggers death selectively in NRAS mutant tumor cells. NRAS-WT/BRAF-WT melanoma cells (FIG. 5a), NRAS-WT/BRAF-mut melanoma cells (FIG. 5b), NRAS mutant neuroblastoma cells (FIG. 5c), NRAS-WT/KRAS-mutant colon cancer cells (FIG. 5d), and NRAS-WT/KRAS-mutant lung cancer cells were treated with 1 μM 6-thio-dG for 5 days (FIG. 5e). At day 5, culture medium was replaced and cells treated with 1 μM 6-thio-dG plus 5 μM Gam for two more days. Cells were stained with Annexin V and PI and percent cell death was determined by FACS. Data represent average of three independent experiments +/−SEM; p values were calculated using un-paired Student's t-test; *p<0.05; **p<0.001.
(§2) Cells were seeded in 96-well plates and treated with drugs. After 6 days, cell viability was assessed following 6h incubation with […] Alamar Blue (ThermoFisherScientific, Philadelphia, Pa.) by measuring fluorescence using an EnVision Xcite Multilabel plate reader (Perkin Elmer, Waltham, Mass.). Cell death was determined by flow cytometry using PSVue-643 (Molecular Targeting Technologies) or Annexin V (640919, Biolegend, San Diego, Calif.) and Propidium Iodide (Sigma) staining. Samples were analyzed using a BD LSRII flow cytometer (BD Biosciences, San Jose, Calif.).

[4] = tested on: NRAS mutant SKNAS neuroblastoma cells; assay: Cell death by Annexin V/PI flow cytometry; format: cell-based; conditions: 1 μM 6-thio-dG, 5 μM Gam, single agents or in combination
Description: as §1, §2

KRAS mutant A549 cells = assay: Cell death by Annexin V/PI flow cytometry; format: cell-based; conditions: 1 μM 6-thio-dG, 5 μM Gam
Description: as §1, §2

SOD2 = conditions: Siegelin et al., 2011; cited from earlier work
NRAS mutant cells = conditions: Chae et al., 2012; cited from earlier work
[5] = tested on: BRAF mutant melanoma cells; assay: Cell death by Annexin V/PI flow cytometry; format: cell-based, Human; conditions: 1 μM 6-thio-dG, 5 μM Gam, single agent or in combination
Description: as §1, §2

[6] = tested on: NRAS-WT/BRAF-WT melanoma cells; assay: Cell death by Annexin V/PI flow cytometry; format: cell-based, Human; conditions: 1 μM 6-thio-dG, 5 μM Gam, single agents or in combination
Description: as §1, §2

[7] = tested on: prostate, breast and lung cancer, BRAF-V600E-mutant melanoma; conditions: Chae et al., 2012; cited from earlier work
[8] = literature; cited from earlier work
[9] = literature; cited from earlier work; remark: listed apart in the source

Molecule: CC(=O)N[C@@H](CS)C(=O)O [NAC, N-acetyl-L-cysteine]
- number of TIF [1]: attenuated the number of TIF

Molecule: CC(C)c1cc(-c2n[nH]c(=O)n2-c2ccc3c(ccn3C)c2)c(O)cc1O [ganetespib]
- enhancement of 6-Thio-dG efficacy in spheroids [2]: did not enhance the efficacy of 6-Thio-dG

Molecule: Gamitrinib
- cell death (Annexin V/PI) [3]: enhanced the cytotoxic effects of Gamitrinib
- cell death (KRAS mutant HCT116 cells): did not induce substantial death
- cell death [4]: triggered significant death
- cell death (KRAS mutant A549 cells): did not induce substantial death
- SOD2 levels (SOD2): downregulate SOD2 levels
- anti-cancer activity as a single agent (NRAS mutant cells): limited activity
- cell death [5]: 75-80%
- cell death [6]: did not induce cell death
- mitochondrial membrane potential [7]: rapid and complete loss of mitochondrial membrane potential

Molecule: imetelstat
- activity [8]: limited activity
- efficacy [9]: efficacy
